Data on one substance can be found in patent US20170095512A1, “METHODS OF INDUCING MYELINATION AND MATURATION OF OLIGODENDROCYTES” (KADIMASTEM LTD., priority 2014, published 2017).

For this assay, the system named is glial progenitor cells derived from human ES cells (Olig2 positive cells). The assay can be described thus: hOPC differentiation assay, Olig2 positive cells (immunostaining, high content screening). The assay is classed as cell-based. Particulars: PDGF 20 ng/ml added during LDN-193189 dose-response assay, 21 days. The procedure: In order to initiate differentiation 20,000 GPCs were seeded in each well of Matrigel coated plates of 96 wells, or on PolyD-Lysine/laminin (PDL/lam)-coated 96 well plates. Cells were grown in GM media for two to three days. Then GM was replaced by differentiation medium without growth factors, (DMEM/F12, 1% B27, 0.5% N2, Vitamin C (Sigma, 50 ug/ml). Differentiation medium was supplemented with the following tested compounds: […] All media were replaced every other day. The oligodendrocyte lineage cells were characterized by the expression of a transcription factor olig2. The rabbit polyclonal AB anti olig2 (Millipore cat AB9610) was added to PFA fixed cells. […] The fixed cells were washed three times in blocking solution, olig2 diluted 1/500, in blocking solution, was added for 1 hour. The fixed cells were washed with PBS 3 times and goat anti rabbit Alexa Fluor 568 1/500 in PBS was added for 45 minutes. The fixed cells were washed three times. ArrayScan VTI HCS reader system (Cellomis, Thermo-scientific) was used for scanning at least 20 fields for each tested well under 10× objective in both assays (differentiation and myelination). Cellomics Neural profiling bio-application was used for processing and analyzing the images. For differentiation assay, the following parameters were tested: number and percentage of O4+ cells, number of processes, processes length and number of branching points. For myelination assay, the same morphological parameters were tested and in addition: areas of myelinated axons in pixels (MBP&NF overlap area) and Number of myelinated regions (MBP&NF overlap count) were also analyzed. Modifications in the Neuro-profiling bio-application were conducted for this specific purpose. T-test analysis was used to compare between treatments. The 4-parameter Hill-Slope curve fittings were generated by GraphPad Prism software using least squares fitting method and EC50 values were calculated. […] The cells at passage five were cultured for three days with GM on 96 well plates and after fixation, cells were reacted with anti-olig2 Ab, and olig2 positive cells and nuclei were scanned in the Thermo Scientific™ ArrayScan™ XTI High Content Analysis (HCA) Reader and counted with the neural profiling program. On the other hand the cells surface antigens O4 and PDGFRa were detected on dissociated cells after fixation and reaction with O4 Ab conjugated to APC, anti PDGFRa PE, as well as A2B5 PE all obtained from BD. Flow cytometry was conducted in BD FACS Canto II. […] Time points used for analysis are 21, 28, 35 and 42 days of differentiation, for each time point 20 fields were analyzed. […] In this experiment, cells at passage 4 were pretreated in differentiation medium with Noggin for 14 days, and split before seeding on 96 well plates.

Turning to PDGF: human recombinant PDGFAA (R&D), the “number of olig2 positive cells on addition of PDGF” value is “increases the number of olig2 positive cells about two folds”.
